This is an account of results in ChEMBL document CHEMBL5233265, “Recent advances in the design and development of formyl peptide receptor 2 (FPR2/ALX) agonists as pro-resolving agents with diverse therapeutic potential” (Eur J Med Chem, 2021).

The subject of experiment [1] is HL-60. As to the kind of experiment: Inhibition of cell migration in human HL-60 cells incubated for 135 mins by transwell assay. It counts as functional, cell-based. Particulars: HL-60, 2.25 h.
Experiment [2] can be described thus: Agonist activity at rat FPR2 expressed in CHO-A12 cells assessed as cAMP level incubated for 1.5 hr by HTRF assay. It counts as cell-based.
The test system of experiment [3] is Mus musculus. As to the kind of experiment: Neuroprotective activity against coronary artery occlusion mouse model assessed as reduction in left ventricular chamber dilatation at 3 mg/kg,po measured after […]. The experiment is classed as functional. Also on record: scale not given: the % may be the effect or the level left.
Experiment [4] in a line: Agonist activity at rat FPR1 expressed in CHO-A12 cells assessed as cAMP level incubated for 1.5 hr by HTRF assay. It counts as cell-based.
The subject of another experiment is Peritoneal macrophage. As to the kind of experiment: Induction of phagocytosis in C57BL6 mouse peritoneal macrophages assessed as increase in FITC signal preincubated with compound for 15 mins followed by zymosan addition and measured after 90 mins by Trypan Blue based FITC analysis.
Experiment [5] has as its target T1, N-formyl peptide receptor 2 (Homo sapiens, UniProt P25090).
T1 sequence (P25090 whole entry): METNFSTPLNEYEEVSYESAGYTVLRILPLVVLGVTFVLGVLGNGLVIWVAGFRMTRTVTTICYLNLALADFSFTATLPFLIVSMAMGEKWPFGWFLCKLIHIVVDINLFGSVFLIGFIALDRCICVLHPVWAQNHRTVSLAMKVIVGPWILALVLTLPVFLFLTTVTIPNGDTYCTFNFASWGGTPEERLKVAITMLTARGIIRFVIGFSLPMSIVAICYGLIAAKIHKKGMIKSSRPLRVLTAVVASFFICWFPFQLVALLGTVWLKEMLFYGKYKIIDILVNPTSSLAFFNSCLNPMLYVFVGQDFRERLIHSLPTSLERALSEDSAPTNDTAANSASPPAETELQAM
Put plainly: Agonist activity at human FPR2 expressed in CHO-A12 cells assessed as cAMP level incubated for 1.5 hr by HTRF assay. It counts as cell-based.

Experiment [6] has as its system Mus musculus. As to the kind of experiment: Neuroprotective activity against coronary artery occlusion mouse model assessed as reduction in left ventricular chamber dilatation at 0.3 mg/kg,po measured after […]. It counts as functional. The arrangement: scale not given: the % may be the effect or the level left.
In experiment [7] the test system is Mus musculus. As to the kind of experiment: Neuroprotective activity against DOCA induced cardiac fibrosis mouse model assessed as reduction in left ventricular fibrosis at 1 mg/kg,po qd measured after 3 weeks. The experiment is classed as functional. The arrangement: scale not given: the % may be the effect or the level left.
The test system of experiment [8] is Mus musculus. As to the kind of experiment: Neuroprotective activity against angiotensin II induced cardiac fibrosis mouse model assessed as reduction in fibrosis at 3 mg/kg,po qd measured after 3 weeks. It counts as functional. Also on record: scale not given: the % may be the effect or the level left.
Experiment [9] concerns Mus musculus. Put plainly: Neuroprotective activity against Myocardial infarction C57BL/6 mouse model assessed as fold increase in infarct wall thickness at 10 mg/kg,po qd measured after 4 weeks. It counts as functional.
Experiment [10] has as its system Rattus norvegicus. As to the kind of experiment: Neuroprotective activity against ischemia-reperfusion injury Sprague-Dawley rat model assessed as increase in distal viable myocardium at 10 mg/kg,po qd measured after 6 weeks. The experiment is classed as functional.
The target in experiment [11] is T2, fMet-Leu-Phe receptor (Homo sapiens, UniProt P21462).
T2 sequence (P21462 whole entry): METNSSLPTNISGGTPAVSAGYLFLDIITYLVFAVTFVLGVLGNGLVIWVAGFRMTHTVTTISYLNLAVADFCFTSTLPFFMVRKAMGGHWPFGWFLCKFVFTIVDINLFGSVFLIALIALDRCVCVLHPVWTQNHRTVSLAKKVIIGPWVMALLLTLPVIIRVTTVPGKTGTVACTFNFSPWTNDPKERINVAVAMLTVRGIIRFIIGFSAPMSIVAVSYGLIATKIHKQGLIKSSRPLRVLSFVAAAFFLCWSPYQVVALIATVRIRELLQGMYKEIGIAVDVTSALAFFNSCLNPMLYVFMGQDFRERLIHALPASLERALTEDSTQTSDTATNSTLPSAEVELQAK
As to the kind of experiment: Agonist activity at human FPR1 expressed in CHO-A12 cells assessed as cAMP level incubated for 1.5 hr by HTRF assay. The experiment is classed as cell-based.

Experiment [12] concerns the target T3, Formyl peptide receptor 2 (Mus musculus, UniProt O88536).
T3 sequence (O88536 whole entry): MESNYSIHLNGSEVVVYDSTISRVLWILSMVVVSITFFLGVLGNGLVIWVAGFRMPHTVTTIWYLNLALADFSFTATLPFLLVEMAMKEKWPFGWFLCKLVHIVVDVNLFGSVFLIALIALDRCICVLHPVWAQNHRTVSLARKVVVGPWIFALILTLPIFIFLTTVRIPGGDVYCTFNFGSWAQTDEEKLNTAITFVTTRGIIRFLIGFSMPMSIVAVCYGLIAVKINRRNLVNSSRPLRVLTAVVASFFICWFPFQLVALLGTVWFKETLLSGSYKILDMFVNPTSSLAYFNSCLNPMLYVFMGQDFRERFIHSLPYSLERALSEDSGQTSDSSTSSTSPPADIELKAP
As to the kind of experiment: Agonist activity at mouse FPR2 expressed in CHO-A12 cells assessed as cAMP level incubated for 1.5 hr by HTRF assay. The experiment is classed as cell-based.

Experiment [13] has as its system Mus musculus. Put plainly: Neuroprotective activity against Myocardial infarction C57BL/6 mouse model assessed as reduction in infarct area at 10 mg/kg,po qd measured after 4 weeks. It counts as functional. The arrangement: scale not given: the % may be the effect or the level left.
The test system of experiment [14] is Rattus norvegicus. As to the kind of experiment: Neuroprotective activity against ischemia-reperfusion injury Sprague-Dawley rat model assessed as increase in proximal viable myocardium at 10 mg/kg,po qd measured after 6 weeks. The experiment is classed as functional.
For experiment [15], the system named is Rattus norvegicus. Put plainly: Neuroprotective activity against ischemia-reperfusion injury Sprague-Dawley rat model assessed as increase in ejection fraction at 10 mg/kg,po qd measured after 6 weeks. It counts as functional.
Experiment [16] has as its system HL-60. As to the kind of experiment: Induction of cell migration in human HL-60 cells incubated for 120 mins by transwell assay. The experiment is classed as functional, cell-based. Particulars: HL-60, 2 h.
Experiment [17] has as its system Mus musculus. Put plainly: Neuroprotective activity against Myocardial infarction C57BL/6 mouse model assessed as reduction in infarct area at 1 mg/kg,po qd measured after 4 weeks. The experiment is classed as functional. The arrangement: scale not given: the % may be the effect or the level left.
Experiment [18] concerns the target T4, Formyl peptide receptor-related sequence 1 (Mus musculus, UniProt O08790).
T4 sequence (O08790 whole entry): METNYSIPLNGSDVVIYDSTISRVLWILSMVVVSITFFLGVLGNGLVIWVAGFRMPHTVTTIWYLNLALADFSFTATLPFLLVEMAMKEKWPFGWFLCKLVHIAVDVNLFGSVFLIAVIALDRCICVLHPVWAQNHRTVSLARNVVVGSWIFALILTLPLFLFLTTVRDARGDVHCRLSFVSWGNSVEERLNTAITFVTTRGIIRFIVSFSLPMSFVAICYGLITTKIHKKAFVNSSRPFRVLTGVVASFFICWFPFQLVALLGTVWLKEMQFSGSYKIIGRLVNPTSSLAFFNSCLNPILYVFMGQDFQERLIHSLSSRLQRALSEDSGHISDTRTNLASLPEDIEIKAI
As to the kind of experiment: Agonist activity at mouse FPR3 expressed in CHO-A12 cells assessed as cAMP level incubated for 1.5 hr by HTRF assay. It counts as cell-based. A general note: Cyclic AMP is a second messenger, typically raised through Gs and lowered through Gi signalling.

In experiment [19] the target is T1, N-formyl peptide receptor 2. As to the kind of experiment: Agonist activity at human FPR2 expressed in CHO-K1 cells by beta-arrestin recruitment assay. It counts as cell-based. Background: Arrestin recruitment assays detect the binding of arrestin to an activated receptor.
Experiment [20] deals with T5, fMet-Leu-Phe receptor (Mus musculus, UniProt P33766).
T5 sequence (P33766 whole entry): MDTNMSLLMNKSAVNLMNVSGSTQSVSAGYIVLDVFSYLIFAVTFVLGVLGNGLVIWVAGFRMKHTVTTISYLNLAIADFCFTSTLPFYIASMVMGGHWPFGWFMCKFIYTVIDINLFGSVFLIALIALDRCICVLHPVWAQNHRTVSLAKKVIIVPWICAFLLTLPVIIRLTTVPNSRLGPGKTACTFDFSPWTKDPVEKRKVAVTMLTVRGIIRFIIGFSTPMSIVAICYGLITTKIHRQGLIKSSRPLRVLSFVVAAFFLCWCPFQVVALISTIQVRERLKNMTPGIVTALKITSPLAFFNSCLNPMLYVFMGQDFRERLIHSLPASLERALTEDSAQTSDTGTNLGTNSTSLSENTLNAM
As to the kind of experiment: Agonist activity at mouse FPR1 expressed in CHO-A12 cells assessed as cAMP level incubated for 1.5 hr by HTRF assay. It counts as cell-based.

The subject of experiment [21] is Rattus norvegicus. Put plainly: Neuroprotective activity against ischemia-reperfusion injury Sprague-Dawley rat model assessed as increase in mid viable myocardium at 10 mg/kg,po qd measured after 6 weeks. The experiment is classed as functional.
The test system of experiment [22] is HL-60. As to the kind of experiment: Inhibition of cell migration in human HL-60 cells incubated for 120 mins in presence of serum amyloid A by transwell assay. It counts as functional, cell-based. Particulars: HL-60, 2 h.

Some results are limits rather than exact numbers.

As a reminder, the IC50 is the point on the concentration scale where inhibition reaches its midpoint. Usually EC50 stands for the concentration giving half of the maximal effect. With `COc1cc(F)c([C@@H]2CNC(=O)[C@H]2NC(=O)Nc2ccccc2)c(F)c1` [BMS-986235], inhibition in the experiment on HL-60 [1] was half-maximal at 0.057 µM (IC50). The half-maximal effective concentration (EC50) turned out to be 0.72 µM in [2], 0.0015 µM in experiment [4], 0.002 µM with Peritoneal macrophage and 1.25 µM in [5]. Besides, the Activity with Mus musculus [3] is 24%; in the experiment on Mus musculus [6], 26%; in the experiment on Mus musculus [7], 50%; in the experiment on Mus musculus [8], 89%.

As for `Cn1c(C(C)(C)C)c(NC(=O)Nc2ccc(Cl)cc2)c(=O)n1-c1ccccc1`, the “fold change (FC)” value with Mus musculus [9] is listed as 1.6. Further, the Activity in the experiment on Rattus norvegicus [10] is 35%; in the experiment with Mus musculus [13], 49%; in the experiment on Rattus norvegicus [14] it was 34%; with Rattus norvegicus [15], 32%; with Mus musculus [17] it was 44%; in the experiment on Rattus norvegicus [21], 44%. In addition, the concentration for a half-maximal effect (EC50) on fMet-Leu-Phe receptor [11] was 0.05 µM; in experiment [12], 0.05 µM; in the experiment on HL-60 [16], 0.078 µM; in [18] it was greater than 1 µM; in experiment [19] it was 3.1 µM; in experiment [5], 0.01 µM. Besides, the EC50 at fMet-Leu-Phe receptor [20] was determined as 0.02 µM. In addition, the IC50 with HL-60 [22] worked out at 0.189 µM.
